# In US4486445A, “Justicidin insecticidal and antiviral compounds” (E. I. Du Pont de Nemours and Company, priority 1983, dated 1984):
# Where two headings read alike, the source gives them in different places.
# Experiments:
# [1] = tested on: Human Rhino Virus (HRV-2); assay: inhibition of HRV-2 in HeLa cells; assay type: cell-based, Human rhinovirus HRV-2; conditions: Rhinovirus A; for inhibition at 0.016 µg/mL: HRV2, 0.016 μg/ml; for inhibition at 0.08 µg/mL: HRV2, 0.08 μg/ml; for inhibition at 0.4 µg/mL: HRV2, 0.4 μg/ml; for inhibition at 2 µg/mL: HRV2, 2 μg/ml; for inhibition at 10 µg/mL: HRV2, 10 μg/ml
# Aedes egypti larvae = assay: insecticidal activity against larvae of A. egypti in water; assay type: in vivo; conditions: larvae of A. egypti in H2O; for LC50: Aedes, read-out: EC50 (effective kill concentration for 50% of the experimental larvae)
# Procedure: The insecticidal activity of the crude acetone/water extracts of Justicia extensa, prepared according to the isolation procedure described previously, was tested against laboratory cultures of the mosquito species Aedes egypti (Linnaeus) and southern army worm (SAW) Spodoptera eridania (Cramer). Extracts of leaves, branches and roots were employed in each test.
# In tests against larvae of A. egypti, 10 mg of the crude plant extract was thoroughly dispersed in 20 ml of water in a test tube to which 10 first instar larvae were added.
# [2] = tested on: Herpes Type 2-Alabama strain; assay: plaque formation inhibition, Herpes Type 2 in HeLa cells; assay type: cell-based; conditions: for antiviral activity against Herpes Type 2: HeLa cells
# HeLa cells = assay type: cell-based
# Herpes Type 1-strain VR3 = assay: plaque formation inhibition, Herpes Type 1 in HeLa cells; assay type: cell-based; conditions: for antiviral activity against Herpes Type 1: HeLa cells
# A/JAX inbred mice = assay: in vivo oral toxicity in A/JAX inbred mice; conditions: orally, 200 and 100 mg/kg
# Procedure: In vivo toxicity studies of natural and synthetic Justicidin P produced mixed results. […] However, natural and synthetic Justicidin P were toxic to A/JAX inbred mice when administered orally at dosages of 200 and 100 mg/kg.
# fish = conditions: in vivo, cited from earlier work
# [3] = tested on: mosquito larvae of the species Culex pipiens pallens; conditions: mixtures with pyrethrin or allethrin; cited from earlier work
# IMR-90 cells = conditions: substantially similar test conditions
SMILES,inhibition at 0.016 µg/mL ([1]; 400 PFU) [%],inhibition at 0.08 µg/mL ([1]; 400 PFU) [%],inhibition at 0.4 µg/mL ([1]; 400 PFU) [%],inhibition at 2 µg/mL ([1]; 400 PFU) [%],inhibition at 10 µg/mL ([1]; 400 PFU) [%],LC50 (Aedes egypti larvae) [µg/mL],inhibition at 0.016 µg/mL ([1]; 200 PFU) [%],inhibition at 0.08 µg/mL ([1]; 200 PFU) [%],inhibition at 0.4 µg/mL ([1]; 200 PFU) [%],also measured
"COc1cc2c(OC)c3c(c(-c4ccc5c(c4)OCO5)c2cc1OC)C(=O)OC3F (racemic) [Compound 14, (±)-9-(1,3-Benzodioxol-5-yl)-3-fluoro-4,6,7-trimethoxynaphtho[2,3-c]furan-1(3H)-one]",0,0,0,21,79,0.7,–,–,–,–
COc1cc2c(OC)c3c(c(-c4ccc5c(c4)OCO5)c2cc1OC)C(=O)OC3OC(C)=O (racemic) [Compound 15],0,0,0,0,72,1,–,–,–,–
"COc1cc2c(OC)c3c(c(-c4ccc5c(c4)OCO5)c2cc1OC)C(=O)OC3O (racemic) [Compound 16, (±)-9-(1,3-Benzodioxol-5-yl)-3-hydroxy-4,6,7-trimethoxynaphtho[2,3-c]furan-1(3H)-one]",0,0,0,0,98,10,–,–,–,–
"CCCOC1OC(=O)c2c1c(OC)c1cc(OC)c(OC)cc1c2-c1ccc2c(c1)OCO2 (racemic) [Compound 17, (±)-9-(1,3-Benzodioxol-5-yl)-3-propoxy-4,6,7-trimethoxynaphtho[2,3-c]furan-1(3H)-one]",–,–,–,–,–,0.8,≥ 100,≥ 100,≥ 100,"inhibition at 0.1 µg/mL ([2]; 0.1 μg/ml, HeLa, read-out: plaque formation inhibition against Type 2 (average)): 91%; antiviral activity against Herpes Type 2 [2]: demonstrated antiviral activity; inhibition at 2 µg/mL ([1]; 200 PFU): ≥ 74%; cytotoxicity (HeLa cells; 1 μg/ml): cytotoxic; inhibition at 0.1 µg/mL (Herpes Type 1-strain VR3; 0.1 μg/ml, HeLa, read-out: plaque formation inhibition against Type 1 (average)): 71%; antiviral activity against Herpes Type 1 (Herpes Type 1-strain VR3): demonstrated antiviral activity"
"COc1cc2c(OC)c3c(c(-c4ccc5c(c4)OCO5)c2cc1OC)C(=O)OC3OC (racemic) [Justicidin P (synthetic), (±)-9-(1,3-Benzodioxol-5-yl)-3,4,6,7-tetramethoxynaphtho[2,3-c]furan-1(3H)-one]",0,0,0,73,43,0.01,–,–,–,in vivo toxicity (A/JAX inbred mice): toxic
CCCCCCCSC1OC(=O)c2c1c(OC)c1cc(OC)c(OC)cc1c2-c1ccc2c(c1)OCO2 (stereo not drawn) [Compound 18],–,–,–,–,–,–,80,≥ 100,≥ 100,"inhibition at 1 µg/mL ([2]; 1 μg/ml, HeLa, read-out: inhibition against Type 2): 16%; inhibition at 4 µg/mL ([2]; 4 μg/ml, HeLa, read-out: inhibition against Type 2): 77%; antiviral activity against Herpes Type 2 [2]: demonstrated antiviral activity; cytotoxicity (HeLa cells; 64 and 16 μg/ml): cytotoxic; inhibition at 1 µg/mL (Herpes Type 1-strain VR3; 1 μg/ml, HeLa, read-out: inhibition against Type 1): 17%; inhibition at 4 µg/mL (Herpes Type 1-strain VR3; 4 μg/ml, HeLa, read-out: inhibition against Type 1): 81%; antiviral activity against Herpes Type 1 (Herpes Type 1-strain VR3): demonstrated antiviral activity"
COc1cc2c(OC)c3c(c(-c4ccc5c(c4)OCO5)c2cc1OC)C(=O)OC3OC(C)C (stereo not drawn) [Compound 19],–,–,–,–,–,0.7,100,≥ 100,107,"inhibition at 2 µg/mL ([1]; 200 PFU): 14%; cytotoxicity (HeLa cells; 1, 4, 16 and 64 μg/ml): demonstrated cytotoxic properties"
CCCCCCCCCCCCOC1OC(=O)c2c1c(OC)c1cc(OC)c(OC)cc1c2-c1ccc2c(c1)OCO2 (stereo not drawn) [Compound 20],–,–,–,–,–,–,0,0,10,inhibition at 2 µg/mL ([1]; 200 PFU): 74%; inhibition at 10 µg/mL ([1]; 200 PFU): 83%
"COc1cc2c(O)c3c(c(-c4ccc5c(c4)OCO5)c2cc1OC)C(=O)OC3 [Diphyllin, 9-(1,3-Benzodioxol-5-yl)-6,7-dimethoxy-4-hydroxynaphtho[2,3-c]furan-1(3H)-one, reference compound]",–,–,–,–,–,–,–,–,–,EC50 (effective kill concentration for 50% of the experimental larvae) (Aedes egypti larvae): not active
"COc1cc2c(OC)c3c(c(-c4ccc5c(c4)OCO5)c2cc1OC)C(=O)OC3 [Justicidin A, 9-(1,3-Benzodioxol-5-yl)-4,6,7-trimethoxynaphtho[2,3-c]furan-1(3H)-one]",–,–,–,–,–,10,–,–,–,piscicidal activity (fish): extraordinary piscicidal activity; piscicidal activity (fish; listed as justicidins A): active piscicidal components; synergistic behavior [3]: synergistic behavior was observed
COc1cc2cc3c(c(-c4ccc5c(c4)OCO5)c2cc1OC)C(=O)OC3 [Justicidin B],–,–,–,–,–,–,–,–,–,piscicidal activity (fish): extraordinary piscicidal activity; piscicidal activity (fish; listed as B): active piscicidal components; synergistic behavior [3]: synergistic behavior was observed
"Nc1nc2c(ncn2COCCO)c(=O)[nH]1 [acyclovir, 9-(2-hydroxy-ethoxymethyl)guanine, reference compound]",0,0,0,0,0,–,–,–,–,"inhibition of Type 2 plaque formation ([2]; range between 0.5 μg/ml and 8 μg/ml, similar test conditions): 90-99%; sensitivity of IMR-90 cells (IMR-90 cells): sensitive; inhibition at 8 µg/mL (Herpes Type 1-strain VR3; HeLa, 8 μg/ml, similar test conditions): 90%"
